One series deals with T1, truncated CK1δ (Homo sapiens, UniProt P48730).
T1 construct: recombinant human, GST-tagged, aa 1-294; GST; purchased Merck Millipore, Merck KGaA, Darmstadt, Germany
T1 sequence (P48730 1-294): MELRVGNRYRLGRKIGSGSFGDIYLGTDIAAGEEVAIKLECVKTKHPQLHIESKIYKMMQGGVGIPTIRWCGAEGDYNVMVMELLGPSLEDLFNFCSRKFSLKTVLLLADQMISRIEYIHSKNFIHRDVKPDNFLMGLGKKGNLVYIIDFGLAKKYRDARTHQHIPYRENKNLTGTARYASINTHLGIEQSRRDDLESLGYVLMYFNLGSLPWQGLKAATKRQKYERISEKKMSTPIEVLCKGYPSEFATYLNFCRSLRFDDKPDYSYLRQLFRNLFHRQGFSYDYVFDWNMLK
In words: CK1δ luminescent kinase assay (Kinase-Glo). The class given is biochemical. Conditions: for remaining activity at 10 µM / remaining activity at 40 µM: CK1δ residual activity; for remaining activity at 10 µM: compound at 10 μM, read-out: % Residual Activity at 10 μM ± sd; for remaining activity at 40 µM: compound at 40 μM, read-out: % Residual Activity at 40 μM ± sd; for IC50: truncated CK1δ, ATP 2 μM, read-out: IC50 (μM), CK1δ inhibition. How it is done:
Luminescent assays were performed in white 96-well plates in a 40 μL final volume with buffer containing 50 mM HEPES (pH 7.5), 1 mM EDTA, 1 mM EGTA, and 15 mM MgCl2. In a typical assay, 10 μL of inhibitor solution (desired concentrations were obtained by diluting a starting 10 mM solution in DMSO) and 10 μL of enzyme solution were added to the well, followed by 20 μL of assay buffer containing casein substrate (Sigma-Aldrich, Merck KGaA, Darmstadt, Germany, casein solution from bovine milk, 5% in water) and ATP, at a final concentration of 0.05% and 2 μM, respectively. […] After 60 min of incubation at 30 °C, the enzymatic reactions were stopped with the addition of 40 μL of KinaseGlo reagent. […] Data were analyzed using Excel and GraphPad Prism software (version 8.0).

The target of the next series is T2, human recombinant A1AR (Homo sapiens, UniProt P30542).
T2 construct: expressed in transfected cells; host or cells: CHO cells (membranes)
T2 sequence (P30542 1-326): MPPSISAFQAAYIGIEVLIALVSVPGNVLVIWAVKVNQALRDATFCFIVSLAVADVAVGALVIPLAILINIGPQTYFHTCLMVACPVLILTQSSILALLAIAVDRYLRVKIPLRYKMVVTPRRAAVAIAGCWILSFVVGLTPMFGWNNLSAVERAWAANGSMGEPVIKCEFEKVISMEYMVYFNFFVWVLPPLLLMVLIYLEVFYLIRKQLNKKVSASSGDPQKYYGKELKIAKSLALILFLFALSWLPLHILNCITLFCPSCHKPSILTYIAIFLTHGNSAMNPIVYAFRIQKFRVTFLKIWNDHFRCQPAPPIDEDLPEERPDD
The series is described as follows: [3H]CCPA displacement binding in CHO cell membranes. Conditions: mean ± standard error, read-out: KiA1. How it is done:
(§1) Compounds 5, 6, 8–12, 15–21, and 23–25 were evaluated in binding studies at human recombinant A1, A2A, and A3 ARs, stably transfected in Chinese hamster ovary (CHO) cells. [^3H]CCPA (2-chloro-N^6-cyclopentylAdo), [^3H]NECA (5’-N-ethylcarboxamidoAdo), and [^3H]HEMADO (2-hexynyl-N^6-methylAdo) were used as the, respective, radioligands. All compounds were also tested at the A2BARs by inhibition of NECA-stimulated adenylyl cyclase activity, using the GloSensor cAMP assay, but none of them were active at a concentration up to 30 μM [35]. The results, together with the data of the reference adenine derivative 1, are reported in Table 2 as Ki values in μM (± standard errors). In the table, the IC50 values (μM) of the CK1δ inhibitory activity are also indicated. […] We called the compounds endowed with receptor antagonist behavior combined with an enzyme inhibitory activity “dual anta-inhibitors”.
(§2) All of the pharmacological methods followed the procedures as described earlier. In brief, the membranes for radioligand binding were prepared from CHO cells stably transfected with human adenosine receptor subtypes through two centrifugations at different speeds. The first low-speed […] centrifugation allowed for the removal of cell fragments and nuclei, while the second, performed at high speed (100,000× g), allowed for the precipitation of the crude membrane fractions. The resulting membrane pellet was resuspended in the buffer used for the respective binding experiments, frozen in liquid nitrogen, and stored in aliquots at −80 °C.
(§3) The binding affinity of the novel compounds was evaluated using radioligand competition experiments in CHO cells stably expressing hA1AR, hA2AAR, hA3AR subtypes, as early described. Results were expressed as Ki values (dissociation constants), which were calculated with the program GraphPad (GraphPad Software, San Diego, CA, USA). Each concentration was tested three–five times in duplicate and the values given as the mean ± standard error (S.E.). The potency of compounds at the hA2BAR (expressed on CHO cells) was determined through a GloSensor cAMP Assay.

The target of series [1] is T3, human recombinant A2AAR (Homo sapiens, UniProt P29274).
T3 construct: expressed in transfected cells; host or cells: CHO cells (membranes)
In words: [3H]NECA displacement binding in CHO cell membranes. Conditions: mean ± standard error, read-out: KiA2A. On the procedure:
as §1, §2, §3

The target of series [2] is T3, human recombinant A2AAR. Conditions: read-out: KiA2AAR; cited from earlier work.
Another series concerns the target T4, human recombinant A3AR (Homo sapiens, UniProt P0DMS8).
T4 construct: expressed in transfected cells; host or cells: CHO cells (membranes)
T4 sequence (P0DMS8 1-318): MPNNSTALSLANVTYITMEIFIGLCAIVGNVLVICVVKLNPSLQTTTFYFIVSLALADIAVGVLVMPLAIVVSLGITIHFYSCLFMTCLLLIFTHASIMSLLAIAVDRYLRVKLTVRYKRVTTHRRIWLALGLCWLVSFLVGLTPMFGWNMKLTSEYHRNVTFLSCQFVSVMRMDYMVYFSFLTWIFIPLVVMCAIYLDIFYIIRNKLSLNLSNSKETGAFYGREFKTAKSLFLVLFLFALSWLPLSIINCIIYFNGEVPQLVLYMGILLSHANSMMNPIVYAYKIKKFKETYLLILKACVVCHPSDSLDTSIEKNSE
The series is described as follows: [3H]HEMADO displacement binding in CHO cell membranes. Conditions: mean ± standard error, read-out: KiA3. On the procedure: as §1, §2, §3

In a further series the target is T5, hA2AAR (Homo sapiens, UniProt P29274).
T5 construct: expressed in transfected cells; host or cells: CHO cells stably expressing hA2AAR and pGloSensor-22F
In words: Antagonism of NECA-induced cAMP accumulation in CHO cells, GloSensor cAMP assay. Conditions: CHO cells stably expressing hA2AAR; read-out: IC50, inhibition of NECA effect on cAMP production. In kind it is cell-based. How it is done: In order to confirm the antagonist activity of the dual anta-inhibitors 12 and 17, they were evaluated in a functional assay in CHO cells stably expressing the hA2AAR. Firstly, they were tested alone, and […] in terms of cAMP stimulation was observed. […] Both 12 and 17 were able to inhibit the effect of NECA on cAMP production, thus resulting in A2AAR antagonists.
Functional activity was determined as described earlier. Briefly, cells stably expressing both the hA2A or hA2B AR and the plasmid pGloSensor-22F coding for the biosensor were cultured. This biosensor encodes for a genetically modified form of firefly luciferase into which a cAMP-binding protein moiety was inserted. The desiderate cell number was harvested and incubated for 2 h at r.t., with 3% v/v GloSensor cAMP reagent stock solution, 10% FBS, and 87% CO2 independent medium. Cells were dispensed in the wells of a 384-well plate and the reference agonist NECA or the under-study compounds were added at different concentrations. Since the compounds were unable to stimulate cAMP production, they were studied as antagonists. The antagonist profile was evaluated by assessing the ability to counteract an NECA-induced increase in cAMP accumulation. Responses were expressed as a percentage of the maximal relative luminescence units (RLU). Concentration–response curves were fitted by a nonlinear regression using Prism software. […]
A general note: Cyclic AMP is a second messenger, typically raised through Gs and lowered through Gi signalling.

Another series concerns CK1δ. Conditions: cited from earlier work.
For the next series, the system named is CK1ε. Conditions: cited from earlier work.
The next series deals with CK1δ/ε. Conditions: read-out: IC50 as CK1δ/ε inhibitor; cited from earlier work.
The test system of a further series is CDK5. More on the design: method as in PMID 18698753, PMID 29289448. Conditions: cited from earlier work.

Where “and” joins values, the source holds several entries; their conditions need not be identical. Identical values can stand only once. Like-named read-outs stand apart in the source and are kept apart here. Some results are limits rather than exact numbers.

Usually melting point stands for the temperature of the solid-liquid transition.

T3 sequence (P29274 whole entry): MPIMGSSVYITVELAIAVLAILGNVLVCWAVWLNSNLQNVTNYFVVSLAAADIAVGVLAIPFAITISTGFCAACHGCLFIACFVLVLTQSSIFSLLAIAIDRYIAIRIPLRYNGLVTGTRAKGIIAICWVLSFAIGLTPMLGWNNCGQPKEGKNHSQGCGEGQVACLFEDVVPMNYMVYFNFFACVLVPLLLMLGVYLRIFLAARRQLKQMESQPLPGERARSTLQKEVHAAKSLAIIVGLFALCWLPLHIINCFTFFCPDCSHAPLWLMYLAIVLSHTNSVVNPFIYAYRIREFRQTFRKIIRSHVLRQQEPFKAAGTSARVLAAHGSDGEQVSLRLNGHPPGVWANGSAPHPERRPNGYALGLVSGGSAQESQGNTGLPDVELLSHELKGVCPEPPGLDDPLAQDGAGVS
T5 sequence (P29274 whole entry): as above

As for `Nc1nc(Cl)nc2c1ncn2C1CCC1` [Compound 5, 2-chloro-9-cyclobutyl-9H-purin-6-amine], the melting point lay within 117 to 119 °C. In addition, on truncated CK1δ, the remaining activity at 10 µM was determined as 37 ± 3.8%, the remaining activity at 40 µM worked out at 43 ± 3.2% and the IC50 was found to be 5.25 ± 0.9 µM. In addition, on human recombinant A1AR, the Ki was found to be 1.53 ± 0.265 µM. Besides, the Ki on human recombinant A2AAR [1] is 0.558 ± 0.151 µM.
In the case of `CCn1cnc2c(N)nc(Cl)nc21` [Compound 3], at truncated CK1δ, the remaining activity at 10 µM was determined as 71%, the remaining activity at 40 µM is 41% and the IC50 is > 10 µM. For the same compound, on human recombinant A2AAR [2], the Ki was 3 µM.
Take `CN(C)c1nc(N)c2ncn(C3CCCC3)c2n1` [Compound 12, 9-Cyclopentyl-N^2,N^2-dimethyl-9H-purine-2,6-diamine]: at truncated CK1δ, the remaining activity at 10 µM stood at 27 ± 4%. The remaining activity at 40 µM at truncated CK1δ amounted to 19 ± 9.4%. Further, the IC50 turned out to be 1.75 ± 0.2 µM on truncated CK1δ and 0.418 ± 0.098 µM at hA2AAR. In addition, the Ki at human recombinant A1AR was 3.34 ± 0.658 µM; on human recombinant A2AAR [1], 0.123 ± 0.002 µM; at human recombinant A3AR, 2.88 ± 0.695 µM.
As for `Clc1nc(NCCCc2ccccc2)c2ncn(C3CCCC3)c2n1` [Compound 24, 2-chloro-9-cyclopentyl-N-(3-phenylpropyl)-9H-purin-6-amine], the melting point was in the range of 177 to 179 °C. Moreover, on truncated CK1δ, the remaining activity at 10 µM is 26 ± 6.7%, the remaining activity at 40 µM amounted to 11 ± 19% and the IC50 worked out at 0.73 ± 0.1 µM. Further, the Ki on human recombinant A1AR came out at 0.692 ± 0.088 µM. Besides, the Ki at human recombinant A2AAR [1] was 3.34 ± 0.749 µM. Besides, the Ki on human recombinant A3AR was 1.27 ± 0.289 µM.
In the case of `c1ccc2[nH]c(CNc3nc(N4CCOCC4)nc4c3ncn4-c3ccsc3)nc2c1` [SR-653234], the IC50 in the series on CK1δ was 0.16 µM; in the series with CK1ε it was 0.54 µM.
For `Clc1nc(NCCc2ccccc2)c2ncn(C3CCCC3)c2n1` [Compound 23, 2-chloro-N^6-(2-phenylethyl)-9-cyclopentyladenine], the melting point was 100 to 101 °C. For the same compound, on truncated CK1δ, the remaining activity at 10 µM is 27 ± 20%, the remaining activity at 40 µM is 14 ± 9.7% and the IC50 amounted to 0.66 ± 0.2 µM. In addition, the Ki at human recombinant A1AR turned out to be 1.34 ± 0.279 µM. Also, the Ki at human recombinant A2AAR [1] was found to be 1.17 ± 0.037 µM. The Ki at human recombinant A3AR is 0.151 ± 0.015 µM.
For `CC[C@H](CO)Nc1nc(Nc2ccc(-c3cccnc3)cc2)c2ncn(C(C)C)c2n1` [(R)-DRF053], the figures for the IC50 with CK1δ/ε and with CDK5 were 0.014 µM and 0.08 µM, respectively.
`Nc1nc(Cl)nc2c1nc(-c1cccs1)n2C1CCCC1` [Compound 9, 2-chloro-9-cyclopentyl-8-(thiophen-2-yl)-9H-purin-6-amine]: the melting point was 158 to 159 °C. Besides, at truncated CK1δ, the remaining activity at 40 µM came out at 90 ± 4.6% and the IC50 is > 40 µM. For the same compound, the Ki at human recombinant A1AR was 0.053 ± 0.009 µM. Moreover, on human recombinant A2AAR [1], the Ki was found to be 0.036 ± 0.009 µM. Also, the Ki on human recombinant A3AR was found to be 0.017 ± 0.002 µM.
`Nc1nc(Cl)nc2c1ncn2C1CCCC1` [Compound 1, 2-chloro-9-cyclopentyl-9H-purin-6-amine] came in with a melting point of 121 to 122 °C. For the same compound, at truncated CK1δ, the remaining activity at 10 µM was 13 ± 7.4%; the remaining activity at 40 µM was 0.7 ± 0.4%; the IC50 is 5.25 µM and 5.2 µM. The Ki at human recombinant A1AR stood at 1.89 ± 0.16 µM. Also, the Ki at human recombinant A2AAR [1] stood at 0.465 ± 0.129 µM. For the same compound, the Ki at human recombinant A3AR is 0.631 ± 0.062 µM.
For the compound `Nc1nc(Cl)nc2c1nc(-c1ccco1)n2C1CCCC1` [Compound 8, 2-chloro-9-cyclopentyl-8-(furan-2-yl)-9H-purin-6-amine], the melting point lay within 152 to 153 °C. Moreover, at truncated CK1δ, the remaining activity at 40 µM was 86 ± 1.6% and the IC50 was > 40 µM. Also, the Ki on human recombinant A1AR was 0.118 ± 0.01 µM. Further, the Ki on human recombinant A2AAR [1] stood at 0.007 µM. The Ki at human recombinant A3AR is 0.14 ± 0.035 µM.
Turning to `Fc1cccc(-n2cnc3c(NCc4nc5ccc(Cl)cc5[nH]4)nc(N4CCNCC4)nc32)c1` [SR-2890], the IC50 in the series with CK1δ/ε was 0.004 µM.
Take `CN(C)c1nc(NCc2nc3ccccc3[nH]2)c2ncn(C3CCCC3)c2n1` [Compound 17, N^6-((1H-benzo[d]imidazol-2-yl)methyl)-9-cyclopentyl-N^2,N^2-dimethyl-9H-purine-2,6-diamine]: at truncated CK1δ, the remaining activity at 10 µM was determined as 34 ± 5%. In addition, the remaining activity at 40 µM on truncated CK1δ is 22 ± 1%. The IC50 at truncated CK1δ was determined as 0.59 ± 0.2 µM; on hA2AAR, 0.069 ± 0.018 µM. Moreover, the Ki was found to be 2.9 ± 0.648 µM on human recombinant A1AR, 0.076 ± 0.017 µM on human recombinant A2AAR [1] and 1.15 ± 0.107 µM at human recombinant A3AR.
